Assay results from patent EP3995830A1, “METHOD OF PROGNOSIS OF AN INDIVIDUAL HAVING MULTIPLE MYELOMA TO BE SENSITIVE TO A TREATMENT” (Centre national de la recherche scientifique, priority 2020, dated 2022).

Test system: HMCLs
Assay: HMCLs response to drug treatment (IC50 at day 4, CellTiter-Glo assay)
Format: cell-based, human
Settings: classification from IC50 at day 4
Protocol: HMCLs were cultured in RPMI-1640 medium (Gibco, Thermo Fisher Scientific, Waltham, USA) supplemented with 10% fetal bovine serum (Eurobio, Les Ulis, France) and IL-6 (Peprotech, Rocky Hill, USA) for XG cell lines. The inventorsevaluated the sensitivity of HMCLs to lenalidomide and romidepsin (Selleckchem, Houston, USA). The IC50 was determined at day 4 using the CellTiter-Glo assay (Promega, Madison, USA), as previously described. The data represent the mean ± standard deviation of three independent experiments that were carried out on sextuplet culture wells (Figure 6A and 7A).

## Nc1cccc2c1CN(C1CCC(=O)NC1=O)C2=O (centres unmarked) [lenalidomide]
AMO1, JJN3, KMS-12-BM, SKMM2, XG1, XG5, XG7, XG12, XG20 and XG21 HMCLs
  sensitivity of HMCLs to lenalidomide: resistant
OPM2, RPMI8226, XG2, XG6, XG13 and XG19 HMCLs
  sensitivity of HMCLs to lenalidomide: sensitive
